In the test the target is T1, LPA2 receptor (LPA2R) (Homo sapiens, UniProt Q9HBW0).
T1 construct: expressed in transfected cells; host or cells: U2OS
Put plainly: LPA2R-Calciumflux assay (intracellular calcium mobilisation, FLIPR). In kind it is cell-based. The following applies: U2OS cells recombinant expressing LPA2R; inhibition of LPA-induced Ca-flux; 10 concentrations 30 uM to 1 nM, 1% DMSO. (Calcium assays in cells follow changes in intracellular calcium, usually with a dye or a luminescent sensor.)

One may read the IC50 as the concentration that gives 50% inhibition.

Each structure is given as a SMILES string.

T1 sequence (Q9HBW0 whole entry): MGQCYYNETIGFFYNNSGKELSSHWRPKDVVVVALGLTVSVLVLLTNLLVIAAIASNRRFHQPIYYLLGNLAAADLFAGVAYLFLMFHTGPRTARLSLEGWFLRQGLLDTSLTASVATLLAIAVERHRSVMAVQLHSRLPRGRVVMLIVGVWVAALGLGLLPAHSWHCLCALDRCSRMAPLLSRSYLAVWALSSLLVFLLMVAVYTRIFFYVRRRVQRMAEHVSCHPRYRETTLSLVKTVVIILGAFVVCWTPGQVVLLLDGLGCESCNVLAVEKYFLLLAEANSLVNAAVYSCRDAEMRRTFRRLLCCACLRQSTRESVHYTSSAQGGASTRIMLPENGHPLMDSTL

As to `Fc1ccc2[nH]c(C3CCCCN3Cc3ccc(Br)cc3)cc2c1` (centres unmarked) [compound 58, 2-[1-(4-Bromo-benzyl)-piperidin-2-yl]-5-fluoro-1H-indole], the half-maximal inhibitory concentration (IC50) is 500 to 5000 nM.

Take `Cc1ccc(CN2CCCCC2c2nc3cc(F)ccc3n2C)cc1C` (centres unmarked) [compound 103, 2-[1-(3,4-Dimethyl-benzyl)-piperidin-2-yl]-5-fluoro-1-methyl-1H-benzo-imidazole]: the IC50 lay within 500 to 5000 nM.

Consider `Fc1ccc(CN2CCCCC2c2nc3cc(Cl)cnc3[nH]2)cc1` (centres unmarked) [compound 120, 6-Chloro-2-[1-(4-fluoro-benzyl)-piperidin-2-yl]-3H-imidazo[4,5-b]pyridine], for which the IC50 is less than 500 nM.

With `Cc1ccc(CN2CCCCC2c2nc3nccnc3[nH]2)cc1C` (centres unmarked) [compound 134, 2-[1-(3,4-Dimethyl-benzyl)-piperidin-2-yl]-1H-imidazo[4,5-b]pyrazine], the half-maximal inhibitory concentration (IC50) was less than 500 nM.

Consider `Fc1ccc(CCCN2CCCCC2c2cc3cc(F)ccc3[nH]2)cc1` (centres unmarked) [compound 132, 5-Fluoro-2-{1-[3-(4-fluoro-phenyl)-propyl)-piperidin-2-yl}-1H-indole], for which the IC50 lay in the range of 5000 to 15000 nM.

As for `Cc1cccc(CN2CCCCC2c2cc3cccc(C)c3[nH]2)c1` (centres unmarked) [compound 20, 7-Methyl-2-[1-(3-methyl-benzyl)-piperidin-2-yl]-1H-indole], the IC50 was in the range of 500 to 5000 nM.

As for `Fc1ccc2[nH]c(C3CCCCN3Cc3ccccc3)nc2c1` (centres unmarked) [compound 102, 2-(1-Benzyl-piperidin-2-yl)-5-fluoro-1H-benzo-imidazole], the IC50 was in the range of 500 to 5000 nM.

`Cc1ccc(CN2CCCCC2c2nc3cc(F)ccc3[nH]2)cc1C` (centres unmarked) [compound 51, 2-[1-(3,4-Dimethyl-benzyl)-piperidin-2-yl]-5-fluoro-1H-benzo-imidazole]: the IC50 is less than 500 nM.

For the compound `CCOc1ccc(CN2C(C)CCCC2c2cc3cc(F)ccc3[nH]2)cc1` (centres unmarked) [compound 34, 2-[1-(4-Ethoxy-benzyl)-6-methyl-piperidin-2-yl]-5-fluoro-1H-indole], the IC50 was 500 to 5000 nM.

As to `COc1cccc(CN2CCCCC2c2cc3ccccc3[nH]2)c1` (centres unmarked) [compound 4, 2-[1-(3-Methoxy-benzyl)-piperidin-2-yl]-1H-indole], the IC50 was less than 500 nM.

`Brc1ccc(CN2CCCCC2c2cc3ccccc3[nH]2)cc1` (centres unmarked) [compound 67, 2-[1-(4-Bromo-benzyl)-piperidin-2-yl]-1H-indole]: the IC50 is 500 to 5000 nM.

Consider `COc1ccc(CN2CCCCC2c2cc3ccccc3[nH]2)cc1` (centres unmarked) [compound 1, 2-[1-(4-Methoxy-benzyl)-piperidin-2-yl]-1H-indole], for which the IC50 is 500 to 5000 nM.

For the compound `Cn1nc(CN2CCCCC2c2cc3cc(F)ccc3[nH]2)c2ccccc21` (centres unmarked) [compound 110, 3-[2-(5-Fluoro-1H-indol-2-yl)-piperidin-1-ylmethyl]-1-methyl-1H-indazole], the half-inhibitory concentration (IC50) is less than 500 nM.

In the case of `Cc1cc(Cl)cc2nc(C3CCCCN3Cc3cccc(C(F)(F)F)c3)[nH]c12` (centres unmarked) [compound 98], the IC50 was 500 to 5000 nM.

Consider `Fc1ccc(CN2CCCCC2c2cc3cccnc3[nH]2)cc1` (centres unmarked) [compound 144, 2-[1-(4-Fluoro-benzyl)-piperidin-2-yl]-1H-pyrrolo[2,3-b]pyridine], for which the IC50 lay within 500 to 5000 nM.

For the compound `Cc1nc(CN2CCCCC2c2nc3cc(F)ccc3[nH]2)cs1` (centres unmarked) [compound 123], the IC50 lay within 500 to 5000 nM.

Turning to `COc1ccc(CN2CCCCC2c2cc3ccccc3o2)cc1` (centres unmarked) [compound 48, 2-Benzofuran-2-yl-1-(4-methoxy-benzyl)-piperidine], the IC50 is 500 to 5000 nM.

With `Cc1ccc(CN2C(C)CCCC2c2cc3cc(F)ccc3[nH]2)o1` (centres unmarked) [compound 38, 5-Fluoro-2-[6-methyl-1-(5-methyl-furan-2-ylmethyl)-piperidin-2-yl]-1H-indole], the half-inhibitory concentration (IC50) was less than 500 nM.

As to `Cc1cc2nc(C3CCCCN3Cc3ccc4c(c3)C(C)(C)CCC4(C)C)[nH]c2cc1Cl` (centres unmarked) [compound 113, 6-Chloro-5-methyl-2-[1-(5,5,8,8-tetramethyl-5,6,7,8-tetrahydro-naphthalen-2-ylmethyl)-piperidin-2-yl]-1H-benzo-imidazole], the IC50 was 500 to 5000 nM.

Turning to `Cc1cc2nc(C3CCCCN3Cc3cccc(C(F)(F)F)c3)[nH]c2cc1Cl` (centres unmarked) [compound 126], the IC50 was less than 500 nM.

Take `CC1CCCC(c2cc3cc(F)ccc3[nH]2)N1Cc1ccc(F)cc1F` (centres unmarked) [compound 37, 2-[1-(2,4-Difluoro-benzyl)-6-methyl-piperidin-2-yl]-5-fluoro-1H-indole]: the IC50 fell in the range of 500 to 5000 nM.

Consider `CC1CCCC(c2cc3cc(F)ccc3[nH]2)N1` (centres unmarked) [compound 45, 5-Fluoro-2-(6-methyl-piperidin-2-yl)-1H-indole], for which the IC50 lay in the range of 500 to 5000 nM.

Take `COc1ccc(CN2CCCCC2c2cc3cc(F)ccc3[nH]2)cc1` (centres unmarked) [compound 107, 5-Fluoro-2-[1-(4-methoxy-benzyl)-piperidin-2-yl]-1H-indole]: the IC50 is less than 500 nM.

Values taken from US9527850B2, “Benzyl piperidine compounds as lysophosphatidic acid (LPA) receptor antagonist” (Merck Patent GmbH, priority 2011, dated 2016).
